Data as given in patent publication US7977372B2, “Ortho aminoamides for the treatment of cancer” (Hoffmann-La Roche Inc., priority 2009, dated 2011).

Columns and labels:
[1] = tested on: histone deacetylase (HeLa nuclear extract); test: HeLa extract HDAC fluorometric assay; type: biochemical; details: compound at 30 micromolar; relative to SNDX-275
Description: Novel compounds were tested for their ability to inhibit histone deacetylase using an in vitro deacetylation assay. The enzyme source for this assay was HeLa nuclear extract. The substrate consisted of a commercial product containing an acetylated lysine side chain (both HeLa extract and substrate are available commercially from BIOMOL Research Laboratories, Inc., Plymouth Meeting, Pa.). After deacetylation of the substrate by incubation with HeLa nuclear extract, subsequent exposure to a developing reagent produces a fluorophore that is directly proportional to the level of deacetylation. Using the substrate concentration at the Km for the HeLa nuclear extract, the deacetylation assay was performed in the presence of novel compounds at 30 micromolar and the percent enzyme inhibition relative to a known reference HDAC inhibitor (SNDX-275) was determined. […] Inhibitory activity for specific representative compounds can be found in Table 19.

[2] = tested on: SGC-7901 gastric cancer cells; test: Growth inhibition of cancer cell lines (MTS / WST assay), SGC-7901; type: cell-based; details: for IC90: read-out: SGC GI90
Description: (§1) The novel compounds of the present invention were tested for their ability to inhibit growth of various cancer cell lines using in vitro growth inhibition assays described below.
(§2) Cells were seeded in 96-well culture plates (200 microliters/well at different seeding concentrations depending on cell type) and incubated overnight at 37 degrees Celsius in 5% CO2. After adding compound dilutions to the cells (DMSO concentration kept below 0.5%), the cells were incubated at 37 degrees Celsius in 5% CO2 for 72 hours. The effects on proliferation were determined by addition of MTS reagent (Promega) according to the manufacturer's instruction, followed by incubation for 2 hours at 37 degrees Celsius in 5% CO2, and finally recording the absorbance at 490 nm using an ELISA plate reader.
(§3) Similar to MTS assay except that the developer is the CCK-8 reagent (Dojindo) and the plate reader is set to 450 nm absorbance.
(§4) GI50 and GI90 values against SGC-7901 gastric cancer cells and SMMC-7721 liver cancer cells for specific representative compounds can be found in Table 19.

[3] = tested on: SMMC-7721 liver cancer cells; test: Growth inhibition of cancer cell lines (MTS / WST assay), SMMC-7721; type: cell-based; details: for IC90: read-out: SMMC GI90
Description: as §1, §2, §3, §4

Row | Compound | HD RP30 (relative inhibitory potency compared with SNDX-275) [1] | GI50 ([2]; Homo sapiens, SGC-7901, 72 h) | IC90 ([2]; Homo sapiens, SGC-7901, 72 h) | GI50 ([3]; Homo sapiens, SMMC-7721, 72 h) | IC90 ([3]; Homo sapiens, SMMC-7721, 72 h) | GI50 ([2]; 72 hours) | SGC GI90 ([2]; 72 hours) | GI50 ([3]; 72 hours) | SMMC GI90 ([3]; 72 hours)
1 | Nc1ccccc1NC(=O)/C=C/c1ccc(C2CN(CCF)CC2C(=O)Nc2ccc(Cl)cc2)cc1 (racemic) [Example 21, rac-(trans-3,4)-4-{4-[2-(2-Amino-phenylcarbamoyl)-vinyl]-phenyl}-1-(2-fluoro-ethyl)-pyrrolidine-3-carboxylic acid (4-chloro-phenyl)-amide] | 1.09 | 0.42 µM | 1.38 µM | 0.91 µM | 2.63 µM | – | – | – | –
2 | CN1CC(c2ccc(/C=C/C(=O)Nc3ccccc3N)cc2)C(c2ncc(-c3ccccc3)[nH]2)C1 (stereo not shown) [Example 11-2] | 1.64 | 0.42 µM | 1.99 µM | 0.7 µM | 1.69 µM | – | – | – | –
3 | CN1C[C@@H](C(=O)Nc2ccc(Cl)cc2)[C@H](c2ccc(/C=C/C(=O)Nc3ccccc3N)cc2)C1 [Example 5-2] | 1.73 | 0.38 µM | 1.13 µM | 0.66 µM | 1.98 µM | – | – | – | –
4 | CC(C)(O)CN1CC(C(=O)Nc2ccc(Cl)cc2)C(c2ccc(/C=C/C(=O)Nc3ccccc3N)cc2)C1 (stereo not shown) [Example 31-8] | 1.48 | 0.54 µM | 1.38 µM | 0.76 µM | 2.09 µM | – | – | – | –
5 | Cc1cc(NC(=O)C2CN(C)CC2c2ccc(/C=C/C(=O)Nc3ccccc3N)cc2)ccc1F (stereo not shown) [Example 5-27] | 1.61 | 0.28 µM | 1.12 µM | 0.57 µM | 1.6 µM | – | – | – | –
6 | CN1CC(c2ccc(/C=C/C(=O)Nc3ccccc3N)cc2)C(c2nc3cc(F)ccc3[nH]2)C1 (stereo not shown) [Example 11-6] | 1.79 | 0.35 µM | 1.08 µM | 0.92 µM | 3.04 µM | – | – | – | –
7 | CN1CC(C(=O)Nc2ccc(F)cc2)C(c2ccc(/C=C/C(=O)Nc3ccccc3N)nc2)C1 (stereo not shown) [Example 73-2] | 1.36 | 0.49 µM | 2.01 µM | 1.44 µM | 4.52 µM | – | – | – | –
8 | CC(C)(C)N1CC(C(=O)Nc2ccc(F)cc2)C(c2ccc(/C=C/C(=O)Nc3ccccc3N)cc2)C1 (stereo not shown) [Example 36-5] | 1.70 | 0.31 µM | 1.08 µM | 0.65 µM | 1.84 µM | – | – | – | –
9 | CN1CC(C(=O)Nc2ccc(Br)cc2)C(c2ccc(/C=C/C(=O)Nc3ccccc3N)cc2)C1 (stereo not shown) [Example 5-20] | 1.62 | 0.5 µM | 1.3 µM | 0.77 µM | 1.62 µM | – | – | – | –
10 | CC(C)N1CC(C(=O)Nc2ccc(Cl)cc2)C(c2ccc(/C=C/C(=O)Nc3ccccc3N)cc2)C1 (stereo not shown) [Example 16-17] | 1.53 | 0.44 µM | 1.89 µM | 0.9 µM | 2.45 µM | – | – | – | –
11 | Cc1cccc(NC(=O)C2CN(C)CC2c2ccc(/C=C/C(=O)Nc3ccccc3N)cc2)c1 (stereo not shown) [Example 5-28] | 1.70 | 0.31 µM | 1.73 µM | 0.76 µM | 2.01 µM | – | – | – | –
12 | Nc1ccccc1NC(=O)/C=C/c1ccc(C2CN(C3CCOCC3)CC2C(=O)Nc2ccc(Cl)cc2)cc1 (stereo not shown) [Example 16-2] | 1.36 | 0.41 µM | 1.17 µM | 0.75 µM | 1.87 µM | – | – | – | –
13 | CN1CC(C(=O)Nc2ccccc2)C(c2ccc(/C=C/C(=O)Nc3ccccc3N)cc2)C1 (stereo not shown) [Example 5-32] | 1.58 | 0.41 µM | 2.04 µM | 0.71 µM | 2.42 µM | – | – | – | –
14 | CCN1CC(C(=O)Nc2ccc(Cl)cc2)C(c2ccc(/C=C/C(=O)Nc3ccccc3N)cc2)C1 (stereo not shown) [Example 21-6] | 1.48 | 0.4 µM | 1.21 µM | 0.8 µM | 2.52 µM | – | – | – | –
15 | COCCN1CC(C(=O)Nc2ccc(Cl)cc2)C(c2ccc(/C=C/C(=O)Nc3ccccc3N)cc2)C1 (stereo not shown) [Example 21-15] | 1.47 | 0.6 µM | 2.95 µM | 1.34 µM | 3.32 µM | – | – | – | –
16 | CN1CC(c2ccc(/C=C/C(=O)Nc3ccccc3N)cc2)C(c2nc3cc(Cl)ccc3[nH]2)C1 (stereo not shown) [Example 11-4] | 1.70 | 0.37 µM | 1.71 µM | 0.64 µM | 1.81 µM | – | – | – | –
17 | CC(C)N1CC(C(=O)Nc2ccc(F)cc2)C(c2ccc(/C=C/C(=O)Nc3ccccc3N)cc2)C1 (stereo not shown) [Example 16-15] | 1.51 | 0.29 µM | 1.24 µM | 0.72 µM | 2.02 µM | – | – | – | –
18 | Cc1ccc(NC(=O)C2CN(C)CC2c2ccc(/C=C/C(=O)Nc3ccccc3N)cc2)cc1 (stereo not shown) [Example 5-19] | 1.63 | 0.49 µM | 1.79 µM | 0.67 µM | 1.75 µM | – | – | – | –
19 | Nc1ccccc1NC(=O)/C=C/c1ccc(C2CN(C3CCOCC3)CC2C(=O)Nc2ccc(Cl)cc2)cc1 (stereo not shown) [Example 16-20] | 1.90 | – | – | – | – | 0.45 µM | 1.23 µM | 0.83 µM | 2.96 µM
20 | CN1CC(c2ccc(/C=C/C(=O)Nc3ccccc3N)cc2)C(c2nc3ccccc3[nH]2)C1 (stereo not shown) [Example 11-3] | 1.62 | 0.32 µM | 1.62 µM | 0.68 µM | 2.2 µM | – | – | – | –
21 | CN1C[C@@H](C(=O)Nc2ccc(F)cc2)[C@H](c2ccc(/C=C/C(=O)Nc3ccccc3N)cc2)C1 [Example 5-8] | 1.95 | 0.31 µM | 1.14 µM | 0.78 µM | 3.96 µM | – | – | – | –
22 | CN1CC(C(=O)Nc2ccc(F)c(Cl)c2)C(c2ccc(/C=C/C(=O)Nc3ccccc3N)cc2)C1 (stereo not shown) [Example 5-30] | 1.97 | 0.34 µM | 1.56 µM | 0.71 µM | 2.34 µM | – | – | – | –
23 | CC(C)(C)N1CC(C(=O)Nc2ccc(Cl)cc2)C(c2ccc(/C=C/C(=O)Nc3ccccc3N)cc2)C1 (racemic) [Example 36, rac-(trans-3,4)-4-{4-[2-(2-Amino-phenylcarbamoyl)-vinyl]-phenyl}-1-tert-butyl-pyrrolidine-3-carboxylic acid (4-chloro-phenyl)-amide] | 1.75 | 0.49 µM | 1.53 µM | 0.96 µM | 3.29 µM | – | – | – | –
24 | COc1ccc(NC(=O)C2CN(C)CC2c2ccc(/C=C/C(=O)Nc3ccccc3N)cc2)cc1 (stereo not shown) [Example 5-33] | 1.49 | 0.42 µM | 1.62 µM | 0.87 µM | 2.21 µM | – | – | – | –
25 | CN1CC(C(=O)Nc2ccc(F)cc2)C(c2ccc(/C=C/C(=O)Nc3ccccc3N)cc2F)C1 (stereo not shown) [Example 85-4] | 1.84 | 0.47 µM | 2.4 µM | 1.2 µM | 3.4 µM | – | – | – | –
26 | CC(C)N1CC(C(=O)Nc2ccc(Br)cc2)C(c2ccc(/C=C/C(=O)Nc3ccccc3N)cc2)C1 (stereo not shown) [Example 16-16] | 2.03 | 0.34 µM | 0.89 µM | 0.7 µM | 1.62 µM | – | – | – | –
27 | Cc1cc(NC(=O)C2CN(C)CC2c2ccc(/C=C/C(=O)Nc3ccccc3N)cc2)ccc1Cl (stereo not shown) [Example 5-29] | 1.65 | 0.32 µM | 1.04 µM | 0.64 µM | 1.39 µM | – | – | – | –
28 | CC(C)(CO)N1CC(C(=O)Nc2ccc(Cl)cc2)C(c2ccc(/C=C/C(=O)Nc3ccccc3N)cc2)C1 (racemic) [Example 26, rac-(trans-3,4)-4-{4-[2-(2-Amino-phenylcarbamoyl)-vinyl]-phenyl}-1-(2-hydroxy-1,1-dimethyl-ethyl)-pyrrolidine-3-carboxylic acid (4-chloro-phenyl)-amide] | 1.38 | 0.29 µM | 1.04 µM | 0.64 µM | 1.53 µM | – | – | – | –
29 | CN1CC(C(=O)Nc2ccc(F)cc2)C(c2ccc(/C=C/C(=O)Nc3ccccc3N)cc2)C1 (racemic) [Example 5, rac-(trans-3,4)-4-{4-[2-(2-Amino-phenylcarbamoyl)-vinyl]-phenyl}-1-methyl-pyrrolidine-3-carboxylic acid (4-fluoro-phenyl)-amide] | 1.61 | 0.39 µM | 1.7 µM | 0.65 µM | 1.95 µM | – | – | – | –
